ChEMBL document CHEMBL2203135, “Novel progesterone receptor modulators: 4-aryl-phenylsulfonamides” (Bioorg Med Chem Lett, 2012)
Activity calls are given as the source filed them. The rule behind the calls is not given here.

Experiments:
Assay type in all cases: functional
[1] = biological target: T1, Mineralocorticoid receptor (Homo sapiens) (UniProt P08235); test: Agonist activity at mineralocorticoid receptor by cellular reporter gene assay
T1 sequence (whole entry): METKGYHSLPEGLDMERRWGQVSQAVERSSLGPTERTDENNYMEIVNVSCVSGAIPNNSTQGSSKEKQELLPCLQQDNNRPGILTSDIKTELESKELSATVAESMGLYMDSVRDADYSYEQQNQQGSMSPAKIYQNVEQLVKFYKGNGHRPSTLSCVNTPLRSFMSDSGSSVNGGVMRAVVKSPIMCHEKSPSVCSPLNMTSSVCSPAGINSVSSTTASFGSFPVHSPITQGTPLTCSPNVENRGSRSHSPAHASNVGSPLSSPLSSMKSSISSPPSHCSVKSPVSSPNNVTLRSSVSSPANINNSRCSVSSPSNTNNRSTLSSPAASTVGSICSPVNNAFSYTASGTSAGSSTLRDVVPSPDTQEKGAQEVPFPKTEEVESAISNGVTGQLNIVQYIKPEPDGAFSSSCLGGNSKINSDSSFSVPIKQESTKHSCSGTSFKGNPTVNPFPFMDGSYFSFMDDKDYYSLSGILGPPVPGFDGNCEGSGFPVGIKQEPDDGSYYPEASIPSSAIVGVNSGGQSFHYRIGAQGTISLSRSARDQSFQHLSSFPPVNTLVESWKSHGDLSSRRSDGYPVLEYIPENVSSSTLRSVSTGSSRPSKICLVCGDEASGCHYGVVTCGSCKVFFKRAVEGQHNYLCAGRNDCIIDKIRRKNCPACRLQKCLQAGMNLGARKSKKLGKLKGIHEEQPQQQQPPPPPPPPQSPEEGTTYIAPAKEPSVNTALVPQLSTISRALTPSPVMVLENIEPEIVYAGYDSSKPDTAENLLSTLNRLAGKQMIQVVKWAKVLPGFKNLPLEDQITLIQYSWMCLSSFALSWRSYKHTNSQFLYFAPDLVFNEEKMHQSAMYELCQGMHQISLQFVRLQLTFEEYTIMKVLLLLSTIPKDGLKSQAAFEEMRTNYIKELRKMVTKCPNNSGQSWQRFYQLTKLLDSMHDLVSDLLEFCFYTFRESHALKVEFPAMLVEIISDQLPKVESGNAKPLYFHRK

[2] = biological target: T2, Estrogen receptor (Homo sapiens) (UniProt P03372); test: Agonist activity at estrogen receptor by cellular reporter gene assay
T2 sequence (whole entry): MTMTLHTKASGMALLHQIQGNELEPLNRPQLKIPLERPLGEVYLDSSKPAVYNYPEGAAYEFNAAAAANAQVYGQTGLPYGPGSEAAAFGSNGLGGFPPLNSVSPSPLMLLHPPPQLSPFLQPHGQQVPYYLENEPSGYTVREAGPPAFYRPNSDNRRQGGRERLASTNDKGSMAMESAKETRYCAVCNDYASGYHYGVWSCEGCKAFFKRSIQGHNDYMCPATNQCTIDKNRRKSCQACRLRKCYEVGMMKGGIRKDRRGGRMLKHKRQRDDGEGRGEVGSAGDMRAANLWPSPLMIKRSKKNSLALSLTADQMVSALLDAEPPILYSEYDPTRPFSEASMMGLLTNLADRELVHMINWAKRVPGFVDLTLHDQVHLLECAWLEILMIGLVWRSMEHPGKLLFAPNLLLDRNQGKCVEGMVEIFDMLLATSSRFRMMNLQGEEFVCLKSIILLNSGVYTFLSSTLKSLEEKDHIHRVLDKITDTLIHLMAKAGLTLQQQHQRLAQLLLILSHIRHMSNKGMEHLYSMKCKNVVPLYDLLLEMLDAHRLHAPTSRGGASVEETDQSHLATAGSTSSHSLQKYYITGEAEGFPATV

[3] = biological target: T3, Androgen receptor (Homo sapiens) (UniProt P10275); test: Agonist activity at androgen receptor by cellular reporter gene assay
T3 sequence (whole entry): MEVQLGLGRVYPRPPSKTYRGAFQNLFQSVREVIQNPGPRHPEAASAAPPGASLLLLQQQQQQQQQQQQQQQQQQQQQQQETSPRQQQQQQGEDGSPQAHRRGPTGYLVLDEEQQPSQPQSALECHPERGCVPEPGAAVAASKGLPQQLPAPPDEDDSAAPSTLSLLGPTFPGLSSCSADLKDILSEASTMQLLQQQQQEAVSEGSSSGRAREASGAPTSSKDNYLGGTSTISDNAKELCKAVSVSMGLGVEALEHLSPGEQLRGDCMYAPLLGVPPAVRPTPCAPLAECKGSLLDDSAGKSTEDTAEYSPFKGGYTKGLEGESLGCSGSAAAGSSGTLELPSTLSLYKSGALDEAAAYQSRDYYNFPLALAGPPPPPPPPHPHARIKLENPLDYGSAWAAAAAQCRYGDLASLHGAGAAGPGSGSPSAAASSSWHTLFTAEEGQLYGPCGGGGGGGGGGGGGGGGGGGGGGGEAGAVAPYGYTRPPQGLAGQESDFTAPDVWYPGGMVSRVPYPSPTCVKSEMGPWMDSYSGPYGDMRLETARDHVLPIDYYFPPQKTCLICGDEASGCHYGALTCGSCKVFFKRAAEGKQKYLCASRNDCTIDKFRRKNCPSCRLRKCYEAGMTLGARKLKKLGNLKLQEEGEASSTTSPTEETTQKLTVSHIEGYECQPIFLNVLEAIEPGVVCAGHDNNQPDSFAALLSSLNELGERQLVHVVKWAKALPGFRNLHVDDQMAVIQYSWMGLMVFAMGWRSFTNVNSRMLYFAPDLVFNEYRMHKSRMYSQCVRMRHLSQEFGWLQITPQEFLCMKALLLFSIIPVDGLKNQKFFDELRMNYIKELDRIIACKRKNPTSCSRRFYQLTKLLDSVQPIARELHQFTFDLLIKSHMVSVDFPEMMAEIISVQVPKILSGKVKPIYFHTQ

Androgen receptor = biological target: T4, Androgen receptor (Homo sapiens, UniProt P10275); test: Antagonist activity at androgen receptor by cellular reporter gene assay
T4 sequence (P10275 whole entry): T3 sequence (whole entry)

Which results are given for `CCS(=O)(=O)Nc1cc(F)c(-c2ccc(C#N)n2C)c(F)c1`?
Activity [1]: inactive; Activity [2]: inactive; Activity [3]: inactive; IC50 (Androgen receptor): 100 nM

`COC[C@]1(OC)CC[C@H]2[C@@H]3CCC4=CC(=O)CCC4=C3[C@@H](c3ccc(/C=N/O)cc3)C[C@@]21C` [ASOPRISNIL] was tested. Which Activity [1] did it give?
Its Activity is “inactive”.

And the Activity [2]?
Its Activity is “inactive”.

And the Activity [3]?
Its Activity is “inactive”.

And the IC50 (Androgen receptor)?
The IC50 was 9 nM.
